{
  "source": "ChEMBL document CHEMBL1139736",
  "about": "“Microwave expedited synthesis of 5-aminocamptothecin analogs: Inhibitors of hypoxia inducible factor HIF-1alpha” (2006)",
  "data": [
    {"system": "LNCaP C4-2", "assay": "Inhibition of HIF1alpha production in c4-2 cells at 10 uM after 24 hrs relative to control", "format": "functional", "settings": "Homo sapiens, LNCaP C4-2, 24 h", "units": {"inhibition at 10 µM": "%"}, "values": [
      {"compound": "CC[C@@]1(O)C(=O)OCc2c1c(NCc1cccc(F)c1)c1n(c2=O)Cc2cc3ccccc3nc2-1", "inhibition at 10 µM": 0},
      {"compound": "CCCNc1c2c(c(=O)n3c1-c1nc4ccccc4cc1C3)COC(=O)[C@]2(O)CC", "inhibition at 10 µM": 76},
      {"compound": "CC[C@@]1(O)C(=O)OCc2c1cc1n(c2=O)Cc2cc3ccccc3nc2-1", "note": "[CAMPTOTHECIN]", "inhibition at 10 µM": 69},
      {"compound": "CC[C@@]1(O)C(=O)OCc2c1c(NCCF)c1n(c2=O)Cc2cc3ccccc3nc2-1", "inhibition at 10 µM": 88},
      {"compound": "CC[C@@]1(O)C(=O)OCc2c1cc1n(c2=O)Cc2cc3c(CN(C)C)c(O)ccc3nc2-1", "note": "[TOPOTECAN]", "inhibition at 10 µM": 69},
      {"compound": "CC[C@@]1(O)C(=O)OCc2c1c(NCc1ccc(F)cc1)c1n(c2=O)Cc2cc3ccccc3nc2-1", "inhibition at 10 µM": 40},
      {"compound": "CC[C@@]1(O)C(=O)OCc2c1c(NCc1ccc(OC)cc1)c1n(c2=O)Cc2cc3ccccc3nc2-1", "inhibition at 10 µM": 9}
    ]},
    {"system": "LNCaP C4-2", "assay": "Inhibition of HIF1-alpha production in c4-2 cells at 20 nM after 24 hrs relative to control", "format": "functional", "settings": "Homo sapiens, LNCaP C4-2, 24 h", "units": {"inhibition at 0.02 µM": "%"}, "values": [
      {"compound": "CO[C@H]1C[C@@H]2CC[C@@H](C)[C@@](O)(O2)C(=O)C(=O)N2CCCC[C@H]2C(=O)O[C@H]([C@H](C)C[C@@H]2CC[C@@H](O)[C@H](OC)C2)CC(=O)[C@H](C)/C=C(\\C)[C@@H](O)[C@@H](OC)C(=O)[C@H](C)C[C@H](C)/C=C/C=C/C=C/1C", "note": "[SIROLIMUS]", "inhibition at 0.02 µM": 35}
    ]}
  ]
}
